Measurements published in patent US20240018158A1, “BRM TARGETING COMPOUNDS AND ASSOCIATED METHODS OF USE” (Prelude Therapeutics Incorporated, priority 2020, published 2024).

Biological target: SMARCA2 (Homo sapiens (Human), UniProt P51531)
Assay: SMARCA2 HiBiT degradation assay in HEK293T cells
Assay type: cell-based
Settings: 293T HiBiT assay, 24 h; for DC50: read-out: DC50 (SM2-293T) SMARCA2 degradation potency; for Dmax: HEK-293T, read-out: Dmax % (SM2-293T) maximum SMARCA2 degradation within the concentrations tested
Outline: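 Luminescence from endogenous C-terminally HiBiT-tagged SMARCA2 (homozygous knock-in, LgBiT HEK293T) measured after 24 h compound exposure, 11 concentrations in 3-fold steps. DMSO and 1 μM PRT1001728 set 0% and 100%; DC50 fitted by four-parameter logistic model.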

Chain of SMARCA2 (P51531 whole entry): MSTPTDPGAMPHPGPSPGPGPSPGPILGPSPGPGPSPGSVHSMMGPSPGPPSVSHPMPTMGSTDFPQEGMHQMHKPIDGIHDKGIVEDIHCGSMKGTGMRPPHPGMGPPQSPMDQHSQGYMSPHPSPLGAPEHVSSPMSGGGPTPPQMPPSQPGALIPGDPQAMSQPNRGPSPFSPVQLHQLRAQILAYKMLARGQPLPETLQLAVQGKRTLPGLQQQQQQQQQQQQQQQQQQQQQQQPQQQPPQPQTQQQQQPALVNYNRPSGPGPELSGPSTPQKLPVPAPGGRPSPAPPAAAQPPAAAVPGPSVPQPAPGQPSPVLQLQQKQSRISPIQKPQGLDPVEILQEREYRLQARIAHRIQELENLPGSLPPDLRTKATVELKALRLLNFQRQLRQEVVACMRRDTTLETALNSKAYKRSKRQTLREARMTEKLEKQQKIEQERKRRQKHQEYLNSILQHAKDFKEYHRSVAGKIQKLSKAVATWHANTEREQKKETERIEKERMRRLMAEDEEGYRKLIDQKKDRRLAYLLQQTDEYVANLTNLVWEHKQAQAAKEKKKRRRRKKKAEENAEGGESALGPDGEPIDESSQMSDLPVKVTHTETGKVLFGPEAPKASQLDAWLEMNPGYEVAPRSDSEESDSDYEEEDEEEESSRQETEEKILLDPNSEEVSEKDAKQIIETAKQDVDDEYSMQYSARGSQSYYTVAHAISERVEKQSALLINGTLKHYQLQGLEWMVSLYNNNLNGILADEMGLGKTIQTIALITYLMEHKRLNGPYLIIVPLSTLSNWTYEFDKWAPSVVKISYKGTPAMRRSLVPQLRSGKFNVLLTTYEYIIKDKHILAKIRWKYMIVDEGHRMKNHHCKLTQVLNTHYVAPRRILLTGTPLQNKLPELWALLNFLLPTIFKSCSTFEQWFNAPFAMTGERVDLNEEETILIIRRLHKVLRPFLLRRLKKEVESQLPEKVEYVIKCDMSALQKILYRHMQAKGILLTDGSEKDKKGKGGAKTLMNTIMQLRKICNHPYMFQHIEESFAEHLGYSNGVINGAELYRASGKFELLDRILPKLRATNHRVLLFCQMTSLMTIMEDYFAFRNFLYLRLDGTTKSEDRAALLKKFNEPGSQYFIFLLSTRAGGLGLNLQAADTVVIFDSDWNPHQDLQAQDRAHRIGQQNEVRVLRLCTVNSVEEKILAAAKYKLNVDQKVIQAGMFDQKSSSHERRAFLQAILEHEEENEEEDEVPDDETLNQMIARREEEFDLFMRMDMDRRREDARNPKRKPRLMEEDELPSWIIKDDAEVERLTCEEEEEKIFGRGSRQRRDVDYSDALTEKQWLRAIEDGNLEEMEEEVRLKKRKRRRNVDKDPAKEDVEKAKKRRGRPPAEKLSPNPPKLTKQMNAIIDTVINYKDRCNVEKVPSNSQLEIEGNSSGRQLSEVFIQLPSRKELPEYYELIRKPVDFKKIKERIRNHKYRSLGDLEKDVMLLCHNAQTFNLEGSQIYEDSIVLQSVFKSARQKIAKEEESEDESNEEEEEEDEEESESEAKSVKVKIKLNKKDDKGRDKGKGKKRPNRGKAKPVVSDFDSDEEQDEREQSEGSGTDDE

## Cc1ncsc1-c1ccc([C@H](C)NC(=O)[C@@H]2C[C@@H](O)CN2C(=O)[C@@H](NC(=O)CCN2CCC(CN3CCN4c5cc(-c6ccccc6O)nnc5NCC4C3)CC2)C(C)(C)C)cc1 (stereo partly drawn) [Example 8, (2S,4R)-4-hydroxy-1-((2S)-2-(3-(4-((2-(2-hydroxyphenyl)-5,6,6a,7,9,10-hexahydro-8H-pyrazino[1′,2′:4,5]pyrazino[2,3-c]pyridazin-8-yl)methyl)piperidin-1-yl)propanamido)-3,3-dimethylbutanoyl)-N-((S)-1-(4-(4-methylthiazol-5-yl)phenyl)ethyl)pyrrolidine-2-carboxamide]
  DC50: 100 to 1000 nM
  Dmax: > 75%

## Cc1ncsc1-c1ccc([C@H](C)NC(=O)[C@@H]2C[C@@H](O)CN2C(=O)C(c2cc(COc3cc(N4CCN5c6cc(-c7ccccc7O)nnc6NCC5C4)ccn3)no2)C(C)C)cc1 (stereo partly drawn) [Example 75, (2S,4R)-4-hydroxy-1-(2-(3-(((4-(2-(2-hydroxyphenyl)-5,6,6a,7,9,10-hexahydro-8H-pyrazino[1′,2′:4,5]pyrazino[2,3-c]pyridazin-8-yl)pyridin-2-yl)oxy)methyl)isoxazol-5-yl)-3-methylbutanoyl)N-((S)-1-(4-(4-methylthiazol-5-yl)phenyl)ethyl)pyrrolidine-2-carboxamide]
  DC50: 100 to 1000 nM
  Dmax: > 75%

## Cc1ncsc1-c1ccc([C@H](C)NC(=O)[C@@H]2C[C@@H](O)CN2C(=O)[C@@H](c2cc(OCCN3CCC(N4CCC(N5CCN6c7cc(-c8ccccc8O)nnc7NC[C@H]6C5)CC4)CC3)no2)C(C)C)cc1 [Example 44, (2S,4R)-4-hydroxy-1-((R)-2-(3-(2-(4-((S)-2-(2-hydroxyphenyl)-5,6,6a,7,9,10-hexahydro-8H-pyrazino[1′,2′:4,5]pyrazino[2,3-c]pyridazin-8-yl)-[1,4′-bipiperidin]-1-yl)ethoxy)isoxazol-5-yl)-3-methylbutanoyl)-N-((S)-1-(4-(4-methylthiazol-5-yl)phenyl)ethyl)pyrrolidine-2-carboxamide]
  DC50: < 100 nM
  Dmax: > 75%

## Cc1ncsc1-c1ccc([C@H](C)NC(=O)[C@@H]2C[C@@H](O)CN2C(=O)[C@@H](c2cc(CN3CCC(N4CCN5c6cc(-c7ccccc7O)nnc6NC[C@H]5C4)CC3)no2)C(C)C)cc1 [Example 39, (2S,4R)-4-hydroxy-1-((R)-2-(3-((4-((S)-2-(2-hydroxyphenyl)-5,6,6a,7,9,10-hexahydro-8H-pyrazino[1′,2′:4,5]pyrazino[2,3-c]pyridazin-8-yl)piperidin-1-yl)methyl)isoxazol-5-yl)-3-methylbutanoyl)-N-((S)-1-(4-(4-methylthiazol-5-yl)phenyl)ethyl)pyrrolidine-2-carboxamide]
  DC50: < 100 nM
  Dmax: > 75%

## Cc1ncsc1-c1ccc([C@H](C)NC(=O)[C@@H]2C[C@@H](O)CN2C(=O)[C@@H](c2cc(OC(C)CN3CCCC(CN4CCN5c6cc(-c7ccccc7O)nnc6NC[C@H]5C4)CC3)no2)C(C)C)cc1 (stereo partly drawn) [Example 67, (2S,4R)-4-hydroxy-1-((2R)-2-(3-((1-(4-(((S)-2-(2-hydroxyphenyl)-5,6,6a,7,9,10-hexahydro-8H-pyrazino[1′,2′:4,5]pyrazino[2,3-c]pyridazin-8-yl)methyl)azepan-1-yl)propan-2-yl)oxy)isoxazol-5-yl)-3-methylbutanoyl)-N-((S)-1-(4-(4-methylthiazol-5-yl)phenyl)ethyl)pyrrolidine-2-carboxamide]
  DC50: < 100 nM
  Dmax: > 75%

## Cc1ncsc1-c1ccc([C@H](C)NC(=O)[C@@H]2C[C@@H](O)CN2C(=O)[C@@H](c2cc(OCCN3CCC(N4CCN5c6cc(-c7ccccc7O)nnc6NC[C@@H]5C4)CC3)no2)C(C)C)cc1 [Example 77, (2S,4R)-4-hydroxy-1-((R)-2-(3-(2-(4-((R)-2-(2-hydroxyphenyl)-5,6,6a,7,9,10-hexahydro-8H-pyrazino[1′,2′:4,5]pyrazino[2,3-c]pyridazin-8-yl)piperidin-1-yl)ethoxy)isoxazol-5-yl)-3-methylbutanoyl)-N-((S)-1-(4-(4-methylthiazol-5-yl)phenyl)ethyl)pyrrolidine-2-carboxamide]
  DC50: < 100 nM
  Dmax: > 75%

## Cc1ncsc1-c1ccc([C@H](C)NC(=O)[C@@H]2C[C@@H](O)CN2C(=O)[C@@H](c2cc(OCCN3C4CCC3CC(CN3CCN5c6cc(-c7ccccc7O)nnc6NCC5C3)C4)no2)C(C)C)cc1 (stereo partly drawn) [Example 78, (2S,4R)-4-hydroxy-1-((2R)-2-(3-(2-(3-((2-(2-hydroxyphenyl)-5,6,6a,7,9,10-hexahydro-8H-pyrazino[1′,2′:4,5]pyrazino[2,3-c]pyridazin-8-yl)methyl)-8-azabicyclo[3.2.1]octan-8-yl)ethoxy)isoxazol-5-yl)-3-methylbutanoyl)-N-((S)-1-(4-(4-methylthiazol-5-yl)phenyl)ethyl)pyrrolidine-2-carboxamide]
  DC50: < 100 nM
  Dmax: > 75%

## Cc1ncsc1-c1ccc([C@H](C)NC(=O)[C@@H]2C[C@@H](O)CN2C(=O)[C@@H](c2cc(OCCN3CC4(CC(N5CCN6c7cc(-c8ccccc8O)nnc7NCC6C5)C4)C3)no2)C(C)C)cc1 (stereo partly drawn) [Example 13, (2S,4R)-4-hydroxy-1-((2R)-2-(3-(2-(6-(2-(2-hydroxyphenyl)-5,6,6a,7,9,10-hexahydro-8H-pyrazino[1′,2′:4,5]pyrazino[2,3-c]pyridazin-8-yl)-2-azaspiro[3.3]heptan-2-yl)ethoxy)isoxazol-5-yl)-3-methylbutanoyl)-N-((S)-1-(4-(4-methylthiazol-5-yl)phenyl)ethyl)pyrrolidine-2-carboxamide]
  DC50: < 100 nM
  Dmax: > 75%

## CC(=O)O[C@@H]1C[C@@H](C(=O)N[C@@H](C)c2ccc(-c3scnc3C)cc2)N(C(=O)[C@@H](c2cc(OCCN3CCN4c5cc(-c6ccccc6O)nnc5NCC4C3)no2)C(C)C)C1 (stereo partly drawn) [Example 9, (3R,5S)-1-((2R)-2-(3-(2-(2-(2-hydroxyphenyl)-5,6,6a,7,9,10-hexahydro-8H-pyrazino[1′,2′:4,5]pyrazino[2,3-c]pyridazin-8-yl)ethoxy)isoxazol-5-yl)-3-methylbutanoyl)-5-(((S)-1-(4-(4-methylthiazol-5-yl)phenyl)ethyl)carbamoyl)pyrrolidin-3-yl acetate]
  DC50: < 100 nM
  Dmax: > 75%

## Cc1ncsc1-c1ccc([C@H](C)NC(=O)[C@@H]2C[C@@H](O)CN2C(=O)[C@@H](c2cc(CCCN3CCC(N4CCN5c6cc(-c7ccccc7O)nnc6NC[C@H]5C4)CC3)no2)C(C)C)cc1 [Example 33, (2S,4R)-4-hydroxy-1-((R)-2-(3-(3-(4-((S)-2-(2-hydroxyphenyl)-5,6,6a,7,9,10-hexahydro-8H-pyrazino[1′,2′:4,5]pyrazino[2,3-c]pyridazin-8-yl)piperidin-1-yl)propyl)isoxazol-5-yl)-3-methylbutanoyl)-N-((S)-1-(4-(4-methylthiazol-5-yl)phenyl)ethyl)pyrrolidine-2-carboxamide]
  DC50: < 100 nM
  Dmax: > 75%

## Cc1ncsc1-c1ccc([C@H](C)NC(=O)[C@@H]2C[C@@H](O)CN2C(=O)[C@@H](c2cc(OCCN3CCC(CN4CCC(N5CCN6c7cc(-c8ccccc8O)nnc7NC[C@H]6C5)CC4)CC3)no2)C(C)C)cc1 [Example 20, (2S,4R)-4-hydroxy-1-((R)-2-(3-(2-(4-((4-((S)-2-(2-hydroxyphenyl)-5,6,6a,7,9,10-hexahydro-8H-pyrazino[1′,2′:4,5]pyrazino[2,3-c]pyridazin-8-yl)piperidin-1-yl)methyl)piperidin-1-yl)ethoxy)isoxazol-5-yl)-3-methylbutanoyl)-N-((S)-1-(4-(4-methylthiazol-5-yl)phenyl)ethyl)pyrrolidine-2-carboxamide]
  DC50: < 100 nM
  Dmax: > 75%

## Cc1ncsc1-c1ccc([C@H](C)NC(=O)[C@@H]2C[C@@H](O)CN2C(=O)[C@@H](NC(=O)CN2CC(N3CCN4c5cc(-c6ccccc6O)nnc5NCC4C3)C2)C(C)(C)C)cc1 (stereo partly drawn) [Example 66, (2S,4R)-4-hydroxy-1-((2S)-2-(2-(3-(2-(2-hydroxyphenyl)-5,6,6a,7,9,10-hexahydro-8H-pyrazino[1′,2′:4,5]pyrazino[2,3-c]pyridazin-8-yl)azetidin-1-yl)acetamido)-3,3-dimethylbutanoyl)-N-((S)-1-(4-(4-methylthiazol-5-yl)phenyl)ethyl)pyrrolidine-2-carboxamide]
  DC50: 100 to 1000 nM
  Dmax: > 75%

## COc1cc(-c2scnc2C)ccc1[C@H](C)NC(=O)[C@@H]1C[C@@H](O)CN1C(=O)[C@@H](c1cc(OCCN2CCC(CN3CCN4c5cc(-c6ccccc6O)nnc5NC[C@H]4C3)CC2)no1)C(C)C [Example 40, (2S,4R)-4-hydroxy-1-((R)-2-(3-(2-(4-(((S)-2-(2-hydroxyphenyl)-5,6,6a,7,9,10-hexahydro-8H-pyrazino[1′,2′:4,5]pyrazino[2,3-c]pyridazin-8-yl)methyl)piperidin-1-yl)ethoxy)isoxazol-5-yl)-3-methylbutanoyl)-N-((S)-1-(2-methoxy-4-(4-methylthiazol-5-yl)phenyl)ethyl)pyrrolidine-2-carboxamide]
  DC50: < 100 nM
  Dmax: > 75%

## Cc1ncsc1-c1ccc([C@H](C)NC(=O)[C@@H]2C[C@@H](O)CN2C(=O)C(c2cc(COC(=O)N3CCC(N4CCN5c6cc(-c7ccccc7O)nnc6NC[C@H]5C4)CC3)no2)C(C)C)cc1 (stereo partly drawn) [Example 53, (5-(1-((2S,4R)-4-hydroxy-2-(((S)-1-(4-(4-methylthiazol-5-yl)phenyl)ethyl)carbamoyl)pyrrolidin-1-yl)-3-methyl-1-oxobutan-2-yl)isoxazol-3-yl)methyl 4-((S)-2-(2-hydroxyphenyl)-5,6,6a,7,9,10-hexahydro-8H-pyrazino[1′,2′:4,5]pyrazino[2,3-c]pyridazin-8-yl)piperidine-1-carboxylate]
  DC50: < 100 nM
  Dmax: > 75%
